Data as given in ChEMBL document CHEMBL1671627, “Increasing trends in antimicrobial resistance among clinically important anaerobes and Bacteroides fragilis isolates causing nosocomial infections: emerging resistance to carbapenems” (2008).
Values after ≈ are worked out from the molar mass of the structure shown.

Columns and labels:
Prevotella buccae [1] = test: Antibacterial activity against Prevotella buccae by CLSI agar dilution method; assay type: functional; details: Segatella buccae
Fusobacterium varium [2] = test: Antibacterial activity against Fusobacterium varium assessed as resistant isolates by CLSI agar dilution method; assay type: functional
Bacteroides uniformis [3] = test: Antibacterial activity against beta-lactamase producing Bacteroides uniformis assessed as resistant isolates by CLSI agar dilution method; assay type: functional
[4] = test system: Peptostreptococcus anaerobius; test: Antibacterial activity against beta-lactamase producing Peptostreptococcus anaerobius assessed as susceptible isolates by CLSI agar dilution method; assay type: functional
Clostridium septicum [5] = test: Antibacterial activity against beta-lactamase producing Clostridium septicum assessed as susceptible isolates by CLSI agar dilution method; assay type: functional
Prevotella bivia [6] = test: Antibacterial activity against Prevotella bivia assessed as susceptible isolates by CLSI agar dilution method; assay type: functional
Veillonella parvula = test: Antibacterial activity against Veillonella parvula by CLSI agar dilution method; assay type: functional
[7] = test system: Prevotella melaninogenica; test: Antibacterial activity against Prevotella melaninogenica assessed as susceptible isolates by CLSI agar dilution method; assay type: functional
Bacteroides fragilis [8] = test: Antibacterial activity against Bacteroides fragilis assessed as resistant isolates by CLSI agar dilution method; assay type: functional
[9] = test system: Bacteroides thetaiotaomicron; test: Antibacterial activity against beta-lactamase producing Bacteroides thetaiotaomicron by CLSI agar dilution method; assay type: functional
Finegoldia magna [10] = test: Antibacterial activity against beta-lactamase producing Finegoldia magna by CLSI agar dilution method; assay type: functional
[11] = test system: Fusobacterium necrophorum; test: Antibacterial activity against Fusobacterium necrophorum assessed as resistant isolates by CLSI agar dilution method; assay type: functional
Parvimonas micra [12] = test: Antibacterial activity against beta-lactamase producing Micromonas micros assessed as resistant isolates by CLSI agar dilution method; assay type: functional
Fusobacterium mortiferum [13] = test: Antibacterial activity against Fusobacterium mortiferum by CLSI agar dilution method; assay type: functional
Bacteroides caccae [14] = test: Antibacterial activity against beta-lactamase producing Bacteroides caccae by CLSI agar dilution method; assay type: functional
[15] = test system: Peptoniphilus asaccharolyticus; test: Antibacterial activity against beta-lactamase producing Peptoniphilus asaccharolyticus assessed as resistant isolates by CLSI agar dilution method; assay type: functional
[16] = test system: Peptostreptococcus anaerobius; test: Antibacterial activity against beta-lactamase producing Peptostreptococcus anaerobius assessed as resistant isolates by CLSI agar dilution method; assay type: functional
Prevotella intermedia [17] = test: Antibacterial activity against Prevotella intermedia assessed as susceptible isolates by CLSI agar dilution method; assay type: functional
[18] = test system: Clostridium paraputrificum; test: Antibacterial activity against beta-lactamase producing Clostridium paraputrificum assessed as resistant isolates by CLSI agar dilution method; assay type: functional
Clostridium tertium [19] = test: Antibacterial activity against beta-lactamase producing Clostridium tertium assessed as susceptible isolates by CLSI agar dilution method; assay type: functional
Bacteroides uniformis [20] = test: Antibacterial activity against beta-lactamase producing Bacteroides uniformis by CLSI agar dilution method; assay type: functional
[21] = test system: Prevotella melaninogenica; test: Antibacterial activity against Prevotella melaninogenica by CLSI agar dilution method; assay type: functional
Clostridium septicum [22] = test: Antibacterial activity against beta-lactamase producing Clostridium septicum assessed as resistant isolates by CLSI agar dilution method; assay type: functional
[23] = test system: Clostridium paraputrificum; test: Antibacterial activity against beta-lactamase producing Clostridium paraputrificum assessed as susceptible isolates by CLSI agar dilution method; assay type: functional
Bacteroides caccae [24] = test: Antibacterial activity against beta-lactamase producing Bacteroides caccae assessed as susceptible isolates by CLSI agar dilution method; assay type: functional
Clostridium tertium [25] = test: Antibacterial activity against beta-lactamase producing Clostridium tertium by CLSI agar dilution method; assay type: functional
Prevotella bivia [26] = test: Antibacterial activity against Prevotella bivia by CLSI agar dilution method; assay type: functional
Fusobacterium mortiferum [27] = test: Antibacterial activity against Fusobacterium mortiferum assessed as resistant isolates by CLSI agar dilution method; assay type: functional
[28] = test system: Peptoniphilus asaccharolyticus; test: Antibacterial activity against beta-lactamase producing Peptoniphilus asaccharolyticus assessed as susceptible isolates by CLSI agar dilution method; assay type: functional
Finegoldia magna [29] = test: Antibacterial activity against beta-lactamase producing Finegoldia magna assessed as resistant isolates by CLSI agar dilution method; assay type: functional
Prevotella bivia [30] = test: Antibacterial activity against Prevotella bivia assessed as resistant isolates by CLSI agar dilution method; assay type: functional
Bacteroides fragilis [31] = test: Antibacterial activity against Bacteroides fragilis assessed as susceptible isolates by CLSI agar dilution method; assay type: functional
Fusobacterium nucleatum [32] = test: Antibacterial activity against Fusobacterium nucleatum assessed as resistant isolates by CLSI agar dilution method; assay type: functional
Fusobacterium varium [33] = test: Antibacterial activity against Fusobacterium varium by CLSI agar dilution method; assay type: functional
[34] = test system: Fusobacterium necrophorum; test: Antibacterial activity against Fusobacterium necrophorum assessed as susceptible isolates by CLSI agar dilution method; assay type: functional
Prevotella buccae [35] = test: Antibacterial activity against Prevotella buccae assessed as resistant isolates by CLSI agar dilution method; assay type: functional, Segatella buccae
Parvimonas micra [36] = test: Antibacterial activity against beta-lactamase producing Micromonas micros by CLSI agar dilution method; assay type: functional
Phocaeicola vulgatus [37] = test: Antibacterial activity against beta-lactamase producing Bacteroides vulgatus assessed as susceptible isolates by CLSI agar dilution method; assay type: functional
[38] = test system: Peptostreptococcus anaerobius; test: Antibacterial activity against beta-lactamase producing Peptostreptococcus anaerobius by CLSI agar dilution method; assay type: functional
[39] = test system: Peptoniphilus asaccharolyticus; test: Antibacterial activity against beta-lactamase producing Peptoniphilus asaccharolyticus by CLSI agar dilution method; assay type: functional
Phocaeicola vulgatus [40] = test: Antibacterial activity against beta-lactamase producing Bacteroides vulgatus by CLSI agar dilution method; assay type: functional
[41] = test system: Bacteroides thetaiotaomicron; test: Antibacterial activity against beta-lactamase producing Bacteroides thetaiotaomicron assessed as resistant isolates by CLSI agar dilution method; assay type: functional
Phocaeicola vulgatus [42] = test: Antibacterial activity against beta-lactamase producing Bacteroides vulgatus assessed as resistant isolates by CLSI agar dilution method; assay type: functional
Prevotella intermedia [43] = test: Antibacterial activity against Prevotella intermedia by CLSI agar dilution method; assay type: functional
Clostridium perfringens = test: microbe, parasite or virus in culture; assay type: functional
[44] = test system: Prevotella melaninogenica; test: Antibacterial activity against Prevotella melaninogenica assessed as resistant isolates by CLSI agar dilution method; assay type: functional
Clostridium tertium [45] = test: Antibacterial activity against beta-lactamase producing Clostridium tertium assessed as resistant isolates by CLSI agar dilution method; assay type: functional
Fusobacterium mortiferum [46] = test: Antibacterial activity against Fusobacterium mortiferum assessed as susceptible isolates by CLSI agar dilution method; assay type: functional
Bacteroides fragilis [47] = test: Antibacterial activity against Bacteroides fragilis by CLSI agar dilution method; assay type: functional
[48] = test system: Clostridium paraputrificum; test: Antibacterial activity against beta-lactamase producing Clostridium paraputrificum by CLSI agar dilution method; assay type: functional
Fusobacterium nucleatum [49] = test: Antibacterial activity against Fusobacterium nucleatum by CLSI agar dilution method; assay type: functional
Bacteroides caccae [50] = test: Antibacterial activity against beta-lactamase producing Bacteroides caccae assessed as resistant isolates by CLSI agar dilution method; assay type: functional
Parvimonas micra [51] = test: Antibacterial activity against beta-lactamase producing Micromonas micros assessed as susceptible isolates by CLSI agar dilution method; assay type: functional
Clostridium septicum [52] = test: Antibacterial activity against beta-lactamase producing Clostridium septicum by CLSI agar dilution method; assay type: functional
Finegoldia magna [53] = test: Antibacterial activity against beta-lactamase producing Finegoldia magna assessed as susceptible isolates by CLSI agar dilution method; assay type: functional
[54] = test system: Fusobacterium necrophorum; test: Antibacterial activity against Fusobacterium necrophorum by CLSI agar dilution method; assay type: functional
Fusobacterium nucleatum [55] = test: Antibacterial activity against Fusobacterium nucleatum assessed as susceptible isolates by CLSI agar dilution method; assay type: functional
[56] = test system: Bacteroides thetaiotaomicron; test: Antibacterial activity against beta-lactamase producing Bacteroides thetaiotaomicron assessed as susceptible isolates by CLSI agar dilution method; assay type: functional
Bacteroides uniformis [57] = test: Antibacterial activity against beta-lactamase producing Bacteroides uniformis assessed as susceptible isolates by CLSI agar dilution method; assay type: functional
Prevotella buccae [58] = test: Antibacterial activity against Prevotella buccae assessed as susceptible isolates by CLSI agar dilution method; assay type: functional, Segatella buccae
Fusobacterium varium [59] = test: Antibacterial activity against Fusobacterium varium assessed as susceptible isolates by CLSI agar dilution method; assay type: functional
Prevotella intermedia [60] = test: Antibacterial activity against Prevotella intermedia assessed as resistant isolates by CLSI agar dilution method; assay type: functional

Compound `C[C@@H](O)[C@H]1C(=O)N2C(C(=O)O)=C(S[C@@H]3CN[C@H](C(=O)Nc4cccc(C(=O)O)c4)C3)[C@H](C)[C@H]12` has an MIC50 (Prevotella buccae [1]) of 0.12 µg/mL (≈ 0.252 µM), an MIC90 (Prevotella buccae [1]) of 0.5 µg/mL (≈ 1.05 µM) and an Activity (Fusobacterium varium [2]) of 0%. It also gave an Activity (Bacteroides uniformis [3]) of 4%, an Activity [4] of 100% and an Activity (Clostridium septicum [5]) of 96%. For the same compound, the Activity (Prevotella bivia [6]) was 100%, the MIC (Veillonella parvula) was 0.03 µg/mL (≈ 0.0631 µM) and the Activity [7] was 100%. The Activity (Bacteroides fragilis [8]) was 5%, the MIC50 [9] was 1 µg/mL (≈ 2.1 µM) and the MIC90 [9] was 4 µg/mL (≈ 8.41 µM). It also gave an MIC50 (Finegoldia magna [10]) of 0.06 µg/mL (≈ 0.126 µM), an MIC90 (Finegoldia magna [10]) of 1 µg/mL (≈ 2.1 µM) and an Activity [11] of 0%. The Activity (Parvimonas micra [12]) was 0%, the MIC50 (Fusobacterium mortiferum [13]) was 0.06 µg/mL (≈ 0.126 µM) and the MIC90 (Fusobacterium mortiferum [13]) was 0.12 µg/mL (≈ 0.252 µM). It also gave an MIC50 (Bacteroides caccae [14]) of 1 µg/mL (≈ 2.1 µM), an MIC90 (Bacteroides caccae [14]) of 2 µg/mL (≈ 4.21 µM) and an Activity [15] of 0%. It also gave an Activity [16] of 0%, an Activity (Prevotella intermedia [17]) of 100% and an Activity [18] of 0%. It also gave an Activity (Clostridium tertium [19]) of 96%, an MIC50 (Bacteroides uniformis [20]) of 1 µg/mL (≈ 2.1 µM) and an MIC90 (Bacteroides uniformis [20]) of 2 µg/mL (≈ 4.21 µM). It also gave an MIC50 [21] of 0.12 µg/mL (≈ 0.252 µM), an MIC90 [21] of 0.5 µg/mL (≈ 1.05 µM) and an Activity (Clostridium septicum [22]) of 0%. It also gave an Activity [23] of 96%, an Activity (Bacteroides caccae [24]) of 92% and an MIC50 (Clostridium tertium [25]) of 0.12 µg/mL (≈ 0.252 µM). For the same compound, the MIC90 (Clostridium tertium [25]) was 4 µg/mL (≈ 8.41 µM), the MIC50 (Prevotella bivia [26]) was 0.12 µg/mL (≈ 0.252 µM) and the MIC90 (Prevotella bivia [26]) was 0.5 µg/mL (≈ 1.05 µM). The Activity (Fusobacterium mortiferum [27]) was 0%, the Activity [28] was 100% and the Activity (Finegoldia magna [29]) was 0%. It also gave an Activity (Prevotella bivia [30]) of 0%, an Activity (Bacteroides fragilis [31]) of 90% and an Activity (Fusobacterium nucleatum [32]) of 0%. The MIC50 (Fusobacterium varium [33]) was 0.06 µg/mL (≈ 0.126 µM), the MIC90 (Fusobacterium varium [33]) was 0.12 µg/mL (≈ 0.252 µM) and the Activity [34] was 100%. It also gave an Activity (Prevotella buccae [35]) of 0%, an MIC50 (Parvimonas micra [36]) of 0.06 µg/mL (≈ 0.126 µM) and an MIC90 (Parvimonas micra [36]) of 1 µg/mL (≈ 2.1 µM). The Activity (Phocaeicola vulgatus [37]) was 92%, the MIC50 [38] was 0.06 µg/mL (≈ 0.126 µM) and the MIC90 [38] was 1 µg/mL (≈ 2.1 µM). For the same compound, the MIC50 [39] was 0.06 µg/mL (≈ 0.126 µM), the MIC90 [39] was 1 µg/mL (≈ 2.1 µM) and the MIC50 (Phocaeicola vulgatus [40]) was 1 µg/mL (≈ 2.1 µM). For the same compound, the MIC90 (Phocaeicola vulgatus [40]) was 2 µg/mL (≈ 4.21 µM), the Activity [41] was 3% and the Activity (Phocaeicola vulgatus [42]) was 4%. It also gave an MIC50 (Prevotella intermedia [43]) of 0.12 µg/mL (≈ 0.252 µM), an MIC90 (Prevotella intermedia [43]) of 0.5 µg/mL (≈ 1.05 µM) and an MIC50 (Clostridium perfringens) of 0.12 µg/mL (≈ 0.252 µM). For the same compound, the MIC90 (Clostridium perfringens) was 4 µg/mL (≈ 8.41 µM), the Activity [44] was 0% and the Activity (Clostridium tertium [45]) was 0%. For the same compound, the Activity (Fusobacterium mortiferum [46]) was 100%, the MIC50 (Bacteroides fragilis [47]) was 0.25 µg/mL (≈ 0.526 µM) and the MIC90 (Bacteroides fragilis [47]) was 4 µg/mL (≈ 8.41 µM). For the same compound, the MIC50 [48] was 0.12 µg/mL (≈ 0.252 µM), the MIC90 [48] was 4 µg/mL (≈ 8.41 µM) and the MIC50 (Fusobacterium nucleatum [49]) was 0.06 µg/mL (≈ 0.126 µM). It also gave an MIC90 (Fusobacterium nucleatum [49]) of 0.12 µg/mL (≈ 0.252 µM), an Activity (Bacteroides caccae [50]) of 4% and an Activity (Parvimonas micra [51]) of 100%. The MIC50 (Clostridium septicum [52]) was 0.12 µg/mL (≈ 0.252 µM), the MIC90 (Clostridium septicum [52]) was 4 µg/mL (≈ 8.41 µM) and the Activity (Finegoldia magna [53]) was 100%. The MIC50 [54] was 0.06 µg/mL (≈ 0.126 µM), the MIC90 [54] was 0.12 µg/mL (≈ 0.252 µM) and the Activity (Fusobacterium nucleatum [55]) was 100%. It also gave an Activity [56] of 97%, an Activity (Bacteroides uniformis [57]) of 92% and an Activity (Prevotella buccae [58]) of 100%. It also gave an Activity (Fusobacterium varium [59]) of 100% and an Activity (Prevotella intermedia [60]) of 0%.
